Patent US11225605B2, “Polymerizable liquid crystal compound, method for producing polymerizable liquid crystal compound, polymerizable liquid crystal composition, optically anisotropic film, optical film, polarizing plate, and image display device” (FUJIFILM Corporation, priority 2017, dated 2022)

Tests used:
[1] = Solubility in methyl ethyl ketone (MEK) and cyclopentanone (CPN); format: physicochemical; conditions: for Solubility Evaluation: MEK or CPN; for Solubility CPO: cyclopentanone; for Solubility CPO / Solubility MEK: shaken at 50° C., left at room temperature (23° C.) for 10 minutes; for Solubility MEK: methyl ethyl ketone
Description: Specifically, 50 mg of the compound was weighed into a 1.5-mL sample bottle, and a solvent was added thereto until the solid content became 40% by weight (75 mg).
The mixture was thoroughly shaken by the hand at 50° C. and left to stand at room temperature (23° C.) for 10 minutes. Then, this operation was stopped in a case where the mixture was clear upon visual observation, and it was determined that the solubility was 40% by weight. A solvent was added so that the solid content became 35% by weight in a case where there were undissolved residues (+18 mg). The mixture was thoroughly shaken by the hand at 50° C. and left to stand at room temperature (23° C.) for 10 minutes. […] A solvent was added so that the solid content became 30% by weight in a case where there were undissolved residues. The same operation was performed in 5%-by-weight steps and repeated up to 5% by weight. In a case where there were undissolved residues, it was determined that the solubility was less than 5% by weight (<5% by weight), and the operation was stopped. Methyl ethyl ketone (MEK) and cyclopentanone (CPN) were used as solvents for solubility measurement.

[2] = Durability of optically anisotropic film at high temperature and high humidity; format: physicochemical; conditions: for Durability 100° C. Relatibe 144 hours: film left 144 hours at relative humidity 95%, variation in Re (550); for Durability of optically anisotropic film: result in words
Description: With regard to a test condition for durability, a test in which the film was left to stand for 144 hours in an environment of a relative humidity of 95% at 100° C. was performed as described in Table 6 below.

Compound | Solubility Evaluation [1] | Solubility CPO [1] [% by weight] | Solubility MEK [1] [% by weight] | Durability 100° C. Relatibe 144 hours [2] | Durability of optically anisotropic film [2]
C=CC(=O)OCC(C)(C)COC(=O)CCC(=O)OCCc1ccc(OC(=O)C2CCC(C(=O)Oc3ccc(OC(=O)C4CCC(C5CCC(CC)CC5)CC4)c4c3SC(=C(C#N)C#N)S4)CC2)cc1 (centres unmarked) [Compound A-1] | C (A solubility in any one of MEK or CPN is less than 15%.) | 10 | 1 | C (A variation in Re (550) after the test with respect to the initial retardation value is 30% or more.) | deteriorated
C=CC(=O)OCC(C)(C)COC(=O)CCC(=O)OCCc1ccc(OC(=O)C2CCC(C(=O)Oc3c(C)cc(OC(=O)C4CCC(C5CCC(CC)CC5)CC4)c4c3SC(=C(C#N)C#N)S4)CC2)cc1 (centres unmarked) [Compound B-1] | B (A solubility in any one of MEK or CPN is 15% or more and less than 30%.) | 15 | 5 | C (A variation in Re (550) after the test with respect to the initial retardation value is 30% or more.) | deteriorated
C=CC(=O)OCC(C)(C)COC(=O)CCC(=O)OCCc1ccc(OC(=O)C2CCC(C(=O)Oc3cc(C(C)(C)C)c(OC(=O)C4CCC(C(=O)Oc5ccc(CCOC(=O)CCC(=O)OCC(C)(C)COC(=O)C=C)cc5)CC4)c4c3SC(=C(C#N)C#N)S4)CC2)cc1 (centres unmarked) [Compound C-1] | A (A solubility in any one of MEK or CPN is 30% or more.) | 40 | 40 | – | –
C=CC(=O)OCCOC(=O)CCC(=O)OCCc1ccc(OC(=O)C2CCC(C(=O)Oc3cc(C(C)(C)C)c(OC(=O)C4CCC(C(=O)Oc5ccc(CCOC(=O)CCC(=O)OCCOC(=O)C=C)cc5)CC4)c4c3SC(=C(C#N)C#N)S4)CC2)cc1 [Compound D-1] | A (A solubility in any one of MEK or CPN is 30% or more.) | 40 | 40 | C (A variation in Re (550) after the test with respect to the initial retardation value is 30% or more.) | deteriorate
C=CC(=O)OCCCCCCOc1ccc(OC(=O)C2CCC(C(=O)Oc3cc(C(C)(C)C)c(OC(=O)C4CCC(C(=O)Oc5ccc(OCCCCCCOC(=O)C=C)cc5)CC4)c4c3SC(=C(C#N)C#N)S4)CC2)cc1 (centres unmarked) [Compound E-1] | C (A solubility in any one of MEK or CPN is less than 15%.) | 10 | 8 | C (A variation in Re (550) after the test with respect to the initial retardation value is 30% or more.) | deteriorate
CCC1CCC(C2CCC(C(=O)Oc3cc(C(C)(C)C)c(OC(=O)C4CCC(C5CCC(CC)CC5)CC4)c4c3SC(=C(C#N)C#N)S4)CC2)CC1 (centres unmarked) [Compound I-1f] | C (A solubility in any one of MEK or CPN is less than 15%.) | 1 | <1 | – | –
C=CC(=O)OCCOC(=O)CCC(=O)OCCc1ccc(OC(=O)C2CCC(C(=O)Oc3c(C(C)(C)C)cc(OC(=O)C4CCC(C5CCC(CC)CC5)CC4)c4c3SC(=C(C#N)C#N)S4)CC2)cc1 (centres unmarked) [Compound I-2] | A (A solubility in any one of MEK or CPN is 30% or more.) | 30 | 35 | A (A variation in Re (550) after the test with respect to the initial retardation value is less than 15% of the initial value.) | –
C=CC(=O)OCCCCCCOc1ccc(OC(=O)C2CCC(C(=O)Oc3c(C(C)(C)C)cc(OC(=O)C4CCC(C5CCC(CC)CC5)CC4)c4c3SC(=C(C#N)C#N)S4)CC2)cc1 (centres unmarked) [Compound I-3] | B (A solubility in any one of MEK or CPN is 15% or more and less than 30%.) | 20 | 10 | A (A variation in Re (550) after the test with respect to the initial retardation value is less than 15% of the initial value.) | –
C=CC(=O)OCC(C)(C)COC(=O)CCC(=O)OCCc1ccc(OC(=O)C2CCC(C(=O)Oc3cc(C(C)(C)C)c(OC(=O)C4CCC(C5CCC(CC)CC5)CC4)c4c3SC(=C(C#N)C#N)S4)CC2)cc1 (centres unmarked) [Compound I-13] | B (A solubility in any one of MEK or CPN is 15% or more and less than 30%.) | 15 | 5 | B (A variation in Re (550) after the test with respect to the initial retardation value is 15% or more and less than 30% of the initial value.) | –
